Experimental data: the NIST ThermoML archive (doi:10.1021/acs.jced.6b00718)
± gives the expanded uncertainty stated by the source.

Experiments:
[1] = for viscosity / mass density: 101 kPa; for viscosity / mass density / electrical conductivity: Liquid; for viscosity: Falling or rolling sphere viscometry; for mass density: Vibrating tube method; for electrical conductivity: 101.33 kPa, Alternating current cell with electrodes; for Normal melting temperature: DTA
[2] = xn = mol fraction of the nth substance listed; conditions: 101 kPa, Liquid, x1 = 1; for viscosity: Falling or rolling sphere viscometry; for mass density: Vibrating tube method

CCCC[N+]1(C)CCCC1.O=S(=O)([N-]S(=O)(=O)C(F)(F)F)C(F)(F)F
[1]
Conditions	Normal melting temperature [°C]	electrical conductivity [S/m]	mass density [kg/m3]	viscosity [mPa·s]
293.15 K	–	–	1399.8 ± 2.8	98.72 ± 2.4
293.4 K	–	0.22 ± 0.006	–	–
296.1 K	–	0.249 ± 0.006	–	–
298.15 K	–	–	1395.2 ± 2.8	77.66 ± 1.3
299.3 K	–	0.285 ± 0.008	–	–
303.15 K	–	–	1390.7 ± 2.8	62.29 ± 0.6
303.3 K	–	0.334 ± 0.008	–	–
309.3 K	–	0.419 ± 0.01	–	–
313.15 K	–	–	1381.7 ± 2.8	41.87 ± 0.42
313.2 K	–	0.481 ± 0.012	–	–
320 K	–	0.6 ± 0.014	–	–
323.15 K	–	–	1372.8 ± 2.8	29.61 ± 0.29
323.2 K	–	0.66 ± 0.016	–	–
333.15 K	–	–	1363.8 ± 2.8	21.82 ± 0.22
333.5 K	–	0.88 ± 0.02	–	–
Metastable crystal	-20 ± 2	–	–	–

CCCC[N+]1(C)CCCC1.O=S(=O)([N-]S(=O)(=O)C(F)(F)F)C(F)(F)F + CCCC#N
[2]
Conditions	mass density [kg/m3]	viscosity [mPa·s]
293.15 K	1399.8 ± 2.8	98.72 ± 6.3
298.15 K	1395.2 ± 2.8	77.66 ± 4.8
303.15 K	1390.7 ± 2.8	62.29 ± 3.8
313.15 K	1381.7 ± 2.8	41.87 ± 2.5
323.15 K	1372.8 ± 2.8	29.61 ± 1.8
333.15 K	1363.8 ± 2.8	21.82 ± 1.3

CCCC[N+]1(C)CCCC1.O=S(=O)([N-]S(=O)(=O)C(F)(F)F)C(F)(F)F + N#CCCCC#N
[2]
Conditions	mass density [kg/m3]	viscosity [mPa·s]
293.15 K	1399.8 ± 2.8	98.72 ± 6.3
298.15 K	1395.2 ± 2.8	77.66 ± 4.8
303.15 K	1390.7 ± 2.8	62.29 ± 3.8
313.15 K	1381.7 ± 2.8	41.87 ± 2.5
323.15 K	1372.8 ± 2.8	29.61 ± 1.8
333.15 K	1363.8 ± 2.8	21.82 ± 1.3

CCCC[N+]1(C)CCCC1.O=S(=O)([N-]S(=O)(=O)C(F)(F)F)C(F)(F)F + N#CCCCCC#N
[2]
Conditions	mass density [kg/m3]	viscosity [mPa·s]
293.15 K	1399.8 ± 2.8	98.72 ± 6.3
298.15 K	1395.2 ± 2.8	77.66 ± 4.8
303.15 K	1390.7 ± 2.8	62.29 ± 3.8
313.15 K	1381.7 ± 2.8	41.87 ± 2.5
323.15 K	1372.8 ± 2.8	29.61 ± 1.8
333.15 K	1363.8 ± 2.8	21.82 ± 1.3

CCCC#N [butanenitrile]
[1]
Conditions	mass density [kg/m3]	viscosity [mPa·s]
293.15 K	791.1 ± 1.6	0.88 ± 0.05
298.15 K	786.4 ± 1.6	0.86 ± 0.05
303.15 K	781.8 ± 1.6	0.84 ± 0.05
313.15 K	772.4 ± 1.6	0.81 ± 0.05
323.15 K	763 ± 1.5	0.78 ± 0.05
333.15 K	753.5 ± 1.5	0.75 ± 0.05

N#CCCCCC#N [hexanedinitrile]
[1]
Conditions	Normal melting temperature [°C]	mass density [kg/m3]	viscosity [mPa·s]
293.15 K	–	962.3 ± 1.9	7.17 ± 0.44
298.15 K	–	958.6 ± 1.9	6.31 ± 0.38
303.15 K	–	954.8 ± 1.9	5.53 ± 0.34
313.15 K	–	947.2 ± 1.9	4.54 ± 0.28
323.15 K	–	939.8 ± 1.9	3.73 ± 0.23
333.15 K	–	932.3 ± 1.9	3.02 ± 0.18
Crystal	6.2 ± 2	–	–

N#CCCCC#N [pentanedinitrile]
[1]
Conditions	mass density [kg/m3]	viscosity [mPa·s]
293.15 K	987 ± 2	6.97 ± 0.07
298.15 K	983.1 ± 2	6.12 ± 0.06
303.15 K	979.1 ± 2	5.39 ± 0.05
313.15 K	971.2 ± 2	4.25 ± 0.04
323.15 K	963.4 ± 1.9	3.47 ± 0.03
333.15 K	955.6 ± 1.9	2.88 ± 0.03
